Consider 6 compounds from patent US12186325B2, “Treatment and prevention of premature ejaculation (PE)” (SEROJAC PME Handels GmbH, priority 2018, dated 2025).

For data set [1] the following is noted: cited from earlier work; for peak plasma concentration: healthy volunteers.
Data set [2] relates to premature ejaculation (PE). Nature of the data set: Case reports: intravaginal ejaculation latency time (IELT) in PE patients. In kind it is in vivo, human.
For data set [3] the following is noted: cited from earlier work.
The subject of data set [4] is seminal vesicle. Particulars: electrical nerve stimulation (Hsieh et al. 1999); cited from earlier work.
The test system of data set [5] is erectile dysfunction. Put plainly: Case reports: erection / ability to achieve intercourse. In kind it is in vivo, human. The conditions noted are these: Case Report 6; 12 mg yohimbine daily alone, in two doses. The source says:
A patient complained about erectile dysfunction and PE.
A patient complained about primary PE and about psychogenic erectile dysfunction.

In data set [6] the test system is male rats. The conditions noted are these: male rats (Shekar et al. 2017); cited from earlier work.
Data set [7] in a line: Case reports: tolerability and side effects in PE patients. The class given is in vivo, human.
Data set [8] relates to aged male rats. The conditions noted are these: cited from earlier work.
Data set [9] relates to premature ejaculation (PE). Particulars: cited from earlier work.
[10] abbreviates: metabolite after oral clomipramine.

Where two headings read alike, the source gives them in different places.

Usually half-life stands for the time needed for the level to fall by half in the phase considered. Consider `CNCCCN1c2ccccc2CCc2ccc(Cl)cc21` [desmethylclomipramine], for which, in data set [1] (after single oral dose of 50 mg clomipramine), the “peak plasma concentration of metabolite” value is 5.0 ± 1.4 ng/mL. Further, in data set [1] (setting [10]), the half-life was 36 h and the “half-life, upper limit in brackets” value was “up to 9 hours”.
Consider `CN[C@H]1CC[C@@H](c2ccc(Cl)c(Cl)c2)c2ccccc21` [sertraline], for which the “outcome of earlier PE treatment” value in data set [2] (Case Report 2, 50-100 mg for 16 weeks) is listed as “unsuccessfully”.
For `COC(=O)[C@@H]1[C@H]2C[C@H]3c4[nH]c5cc(O)ccc5c4CCN3C[C@@H]2CC[C@@H]1O` [11-hydroxy-yohimbine], the “elimination half-life of active metabolite” value in [3] (single-dose yohimbine studies) is 6 h.
With `COC(=O)[C@@H]1[C@H]2C[C@H]3c4[nH]c5ccccc5c4CCN3C[C@@H]2CC[C@@H]1O` [yohimbine, 17α-hydroxy-yohimban-16α-carboxylic acid methyl ester], in [4], the “effect on seminal vesicle contractile response” value was “can suppress”. Moreover, in [5], the erections result is on record as “improved erections”. Moreover, the “antagonism of clomipramine-induced sexual dysfunction” value in data set [6] is listed as “failed to antagonize”. Also, the side effects reported entry in data set [7] (Case Report 6, 12 mg yohimbine daily alone, from the second day of treatment) is given as “diarrhoea”. For the same compound, the time of intercourse result in data set [2] (Case Report 6, 12 mg yohimbine daily alone) is reported as “no amelioration”. Moreover, in data set [3] (single-dose studies, oral or intravenous), the elimination half-life is under 1 h. Moreover, the “effect on erectile dysfunction” value in data set [8] is reported as “improves erectile dysfunction”.
As to `Fc1ccc([C@@H]2CCNC[C@H]2COc2ccc3c(c2)OCO3)cc1` [paroxetine], the “outcome of earlier PE treatment” value in [2] (Case Report 1, 20 to 40 mg daily for 6 months) is “unsuccessfully”.
In the case of `CN(C)CCCN1c2ccccc2CCc2ccc(Cl)cc21` [clomipramine, 3-(3-chloro-10,11-dihydro-5H-dibenzo[b,f]azepin-5-yl)-N,N-dimethylpropan-1-amine], the side effects reported result in data set [7] (Case Report 5, 30 mg clomipramine alone 6 hours before sexual intercourse) was “dizziness, dyspepsia and constipation”. Also, the “time to climax in premature ejaculators” value in data set [9] (50 mg clomipramine) was “more than 8 minutes”. Besides, the latency to ejaculation entry in data set [9] (25 milligrams clomipramine 12 to 24 hours before sexual activity, from about 1.5 to 2 minutes) is recorded as “about 8 minutes”. This compound yielded an IELT after treatment in data set [2] (Case Report 5, 30 mg clomipramine alone 6 hours before sexual intercourse, before: 1 minute) of 6 min. In addition, the peak plasma concentration in data set [1] (single oral dose 50 mg) is 28.8 ± 11.2 ng/mL; in [1] (single oral dose 100 mg) it was 70 to 140 ng/mL.
